Measured values as given in US20050209295A1, “Methimazole derivatives and tautomeric cyclic thiones to inhibit cell adhesion” (priority 2004, published 2005).

Columns and labels:
Assay type in all cases: cell-based, human
[1] = tested on: VCAM-1; assay: ELISA of TNF-α induced VCAM-1 protein on HAEC
Experimental: Cell culture and treatment of HAEC: Human aortic endothelial cells (HAEC; Cambrex Bio Science Walkersville, Inc., Walkersville, Md.) are cultured in M199 supplemented with 8% FBS, 100 μg/ml heparin, 10 ng/ml endothelial growth factor, 100 μg/ml hypothalamus extract, 2 mM L-glutamine, 1% non-essential amino acids, 100 units/ml penicillin and 100 μg/ml streptomycin. HAEC are subcultured on gelatin pre-coated: 96-well tissue culture plates (Corning Incorporated; Corning, N.Y.) for viability assays and ELISA; 100-mm tissue culture dishes (BD Falcon; Franklin Lakes, N.J.) for Northern blot analyses, Western blot analyses and EMSA; 35-mm tissue culture dishes (Corning) for adhesion assays and on 24-well tissue culture plates for luciferase promoter assays (BD Falcon). All experiments are performed with confluent HAEC monolayers. Unless noted otherwise, HAEC are treated with 25 ng/ml TNF-α, in the absence or presence of C-10 or 0.25% DMSO (carrier control for C-10), for 2-24 hrs. The concentration of DMSO is held constant at 0.25% (unless indicated otherwise) for all of the C-10 conditions.
HAEC are washed with cold HBSS+, fixed in 1% formaldehyde at 4° C. for 20 min., washed with cold HBSS+, and incubated in cold M199 containing 8% FBS. Unless otherwise noted, from this point on all antibody dilutions and washes are carried out with M199 containing 8% FBS. Murine mAbs (primary mAbs) to ECAMs are added (10 μg/ml) and the HAEC incubated at 4° C. for 20 min. Following the incubation, the wells are washed and a peroxidase conjugated polyclonal (secondary) antibody to mouse IgG is added (diluted 1:50). After a 20 min. incubation at 4° C., the wells are washed and treated with OPD dissolved in phosphate citrate buffer containing sodium perborate. Following a 10 min. incubation at room temperature, the absorbance of the fluid in each well is determined at 450 nm using a micro-well plate spectrophotometer (Molecular Devices; Sunnyvale, Calif.). In every experiment, each condition is run in triplicate wells.

[2] = tested on: IRF-1; assay: EMSA of TNF-α induced IRF-1 binding activity to VCAM-1 promoter; conditions: 0.5 mM and 1 mM; 2 hr. TNF-α; HAEC nuclear extract
Experimental: Nuclear Extracts and EMSA: Nuclear extracts are prepared from harvested HAEC using NE-PER® extraction reagents (Pierce Chemical Co.; Rockford, Ill.) in the presence of a protease inhibitor cocktail (PMSF, Leupeptin, Pepstatin-A). Oligonucleotides (Biosynthesis Inc.; Lewisville, Tex.) are annealed and precipitated double stranded oligonucleotides end labeled with γ-^32P-ATP using T4 polynucleotide kinase enzyme. Binding reactions (20 min., room temperature) included ^32P-labeled probe (activity 100,000 cpm), 3-6 μg HAEC nuclear extract, 1 μg poly(dI-dC), 1 mM DTT, 10% glycerol and 1× binding buffer. Binding buffer (10×) for NF-κB EMSA is 200 mM HEPES-KOH (pH7.9), 340 mM KCl, 50 mM MgCl2, 5 mM EDTA (pH 8.0), 1% Triton X-100. Binding buffer (10×) for IRF-1 EMSA is 100 mM Tris-HCL (pH 7.5), 500 mM NaCl, 50 mM MgCl2, 10 mM EDTA (pH 8.0). In competition studies, nuclear extracts are incubated with 100 fold molar excess of unlabeled double stranded oligonucleotide. In supershift studies, nuclear extracts are incubated with 2 μg of appropriate antibodies. After the incubations, reaction mixtures are electrophoresed (160V, room temperature) on 5% non-denaturing polyacrylamide gels containing 5% glycerol in 1×TBE (50 mM Tris, 50 mM boric acid, and 1 mM EDTA). Gels are dried and autoradiographed. Each experiment is replicated at least twice. […]

[3] = tested on: U937 cell adhesion to HAEC; assay: Flow adhesion assay: U937 cell adhesion to TNF-α activated HAEC; conditions: shear stress 1.8 dynes/cm^2
Experimental: U937 cells (American Type Culture Collection; Manassas, Va.) are cultured in RPMI supplemented with 8% FBS, 2 mM L-glutamine, 100 units/ml penicillin and 100 μg/ml streptomycin. For the adhesion assays, U937 cells are washed, resuspended to 1×10^8 cells/ml in RPMI and held on ice (<4 hrs.) until the time they are used in the flow adhesion assay.
Flow adhesion assays: A parallel plate flow chamber (Glycotech; Rockville, Md.), similar to that described by McIntire, Smith and colleagues (34) is used in this study. Our particular set up has been described previously (20). A 35-mm tissue culture dish containing a confluent HAEC monolayer is loaded into the flow chamber. After a brief rinse, U937 cells (5*10^5 cells/ml in assay buffer) are drawn over the HAEC monolayer at a shear stress of 1.8 dynes/cm^2. To determine U937 cell accumulation, the number of U937 cells adherent (either rolling or firmly adherent) to the HAEC monolayer in 8 different fields of view after 2.5 minutes of flow is determined, averaged and normalized to the area of the field of view to give the result for that particular run. Such an assay is done at least 3 times. In certain experiments, TNF-α activated HAEC, in the absence or presence of C-10, are treated with mAbs HEL3/2 or 51-10C9 (10 μg/ml) or a combination of HEL3/2 and 51-10C9. […]

With Cn1c(-c2ccccc2)cnc1S [5-Phenylmethimazole] the “concentration at which significant reduction of TNF-α induced VCAM-1 protein expression is observed” value ([1]; 4 hr. TNF-α) was ≥ 0.25 mM, the “effect on TNF-α induced protein expression of VCAM-1” value ([1]; 4 hr. TNF-α) was “significantly reduces” and the “concentration at which significant reduction of TNF-α induced VCAM-1 protein expression is observed” value ([1]; 24 hr. TNF-α) was ≥ 0.05 mM. The “effect on TNF-α induced protein expression of VCAM-1” value ([1]; 24 hr. TNF-α) was “significantly reduces”, the “effect on formation of TNF-α induced IRF-1 complex (EMSA)” value [2] was “inhibits” and the “effect on TNF-α induced U937 cell adhesion to HAEC” value ([3]; 4 hr. TNF-α, C-10 0.5 mM, mAbs 10 μg/ml) was “little effect”. For the same compound, the “effect on TNF-α induced U937 cell adhesion to HAEC” value ([3]; 24 hr. TNF-α, C-10 0.1 mM alone vs. DMSO) was “significantly reduced”.
